Experimental findings from patent publication US12428380B2 (PSYLO PTY LTD, priority 2023, dated 2025) are described below.

For one assay, the target named is T1, 5-HT2A (Homo sapiens, UniProt P28223).
T1 construct: host or cells: HEK293
Kind of assay: FLIPR Ca2+ flux functional assay, 5-HT2A (HEK293). Type of assay: cell-based. Particulars: HEK293 cells expressing 5-HT2A; for Emax: HEK293, agonist activity; for pEC50: agonist activity. In general terms: A change in cytosolic calcium serves as a functional read-out for many receptors and channels.

The target in assay [1] is T2, 5-HT2B (Homo sapiens, UniProt P41595).
T2 construct: host or cells: CHO-K1
Kind of assay: FLIPR Ca2+ flux functional assay, 5-HT2B (CHO-K1). Type of assay: cell-based. Particulars: CHO-K1 cells expressing 5-HT2B; for Emax: CHO-K1, agonist activity.
Procedure: (§1) Activity at 5-HT2A, 5-HT2B and 5-HT2C receptors was determined using a FLIPR Ca2+ flux assay at WuXi AppTec Co. Ltd. (Hong Kong) Discovery Biology Unit according to their standard protocols. Briefly, stably transfected cells expressing the receptor of interest (HEK293 for 5-HT2A and 5-HT2C; CHO-K1 for 5-HT2B) were grown and plated in a 384 well plate and incubated at 37° C. and 5% CO2 overnight. A 250 mM stock solution of probenecid in FLIPR calcium assay buffer (10 mL) was freshly prepared and combined with a fluorescent dye (Fluo-4 Direct) to give a final assay concentration of 2.5 mM. Reference compounds were 4-fold serially diluted and the screening compounds were 3-fold serially diluted in 100% DMSO for 10 points using Agilent Bravo, and 750 nL was added to a 384 well compound plate using Echo along with 30 μL assay buffer. The fluorescent dye was then added to the assay plate along with assay buffer to a final volume of 40 μL. The cell plate was incubated for 50 min at 37° C. and 5% CO2 and placed into the FLIPR Tetra along with the compound plate. 10 μL of references and compounds were then transferred from the compound plate into the cell plate and the fluorescent signal was read.

A further assay concerns the target T3, 5-HT2C (Homo sapiens, UniProt P28335).
T3 construct: host or cells: HEK293
T3 sequence (P28335 33-458): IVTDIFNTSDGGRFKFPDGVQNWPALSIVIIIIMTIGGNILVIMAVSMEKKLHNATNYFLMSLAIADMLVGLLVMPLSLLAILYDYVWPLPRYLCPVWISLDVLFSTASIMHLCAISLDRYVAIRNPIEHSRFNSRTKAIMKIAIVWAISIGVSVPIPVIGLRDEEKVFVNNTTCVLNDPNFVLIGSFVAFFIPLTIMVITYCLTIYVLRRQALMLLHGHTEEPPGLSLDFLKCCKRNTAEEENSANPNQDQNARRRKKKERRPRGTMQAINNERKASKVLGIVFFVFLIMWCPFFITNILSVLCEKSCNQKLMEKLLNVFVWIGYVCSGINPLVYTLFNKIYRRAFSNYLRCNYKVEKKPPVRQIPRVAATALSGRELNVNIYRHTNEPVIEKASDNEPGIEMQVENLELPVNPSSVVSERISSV
Kind of assay: FLIPR Ca2+ flux functional assay, 5-HT2C (HEK293). Type of assay: cell-based. Particulars: HEK293 cells expressing 5-HT2C; for Emax: HEK293, agonist activity.

The next assay concerns ICR mice. Kind of assay: Acute restraint stress - tail suspension test (Example 51a). Type of assay: in vivo, mouse. Particulars: male ICR mice after 5 h acute restraint stress, IP, tested 10 min after treatment, FIGS. 6 and 7.
Assay [2] concerns the target T2, 5-HT2B. Kind of assay: Activation in a similar Ca2+ flux assay at a single concentration, 5-HT2B. It counts as cell-based. Particulars: head prints 10 µM. In outline: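 Single 10 μM test concentration in a FLIPR Ca2+ flux format using stably transfected CHO-K1 cells with Fluo-4 Direct dye and 2.5 mM probenecid (final). Cells loaded 50 min at 37° C before compound addition; fluorescence read on addition.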

pEC50: −log10 of the molar value. Bounds are passed on as bounds.

T2 sequence (P41595 whole entry, species assumed): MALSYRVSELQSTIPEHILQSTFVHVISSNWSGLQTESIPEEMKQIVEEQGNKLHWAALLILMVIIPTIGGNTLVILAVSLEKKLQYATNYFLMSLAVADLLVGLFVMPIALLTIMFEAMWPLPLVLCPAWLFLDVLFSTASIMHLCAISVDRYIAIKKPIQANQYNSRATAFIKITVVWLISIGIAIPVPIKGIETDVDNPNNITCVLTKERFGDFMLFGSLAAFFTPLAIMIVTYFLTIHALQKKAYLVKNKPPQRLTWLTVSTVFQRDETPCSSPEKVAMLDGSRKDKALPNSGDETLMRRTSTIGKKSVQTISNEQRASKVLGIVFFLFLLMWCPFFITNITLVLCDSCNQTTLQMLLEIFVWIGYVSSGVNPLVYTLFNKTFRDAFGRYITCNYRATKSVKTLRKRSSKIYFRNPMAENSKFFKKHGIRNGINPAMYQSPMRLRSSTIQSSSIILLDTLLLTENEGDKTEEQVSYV
T1 sequence (P28223 whole entry): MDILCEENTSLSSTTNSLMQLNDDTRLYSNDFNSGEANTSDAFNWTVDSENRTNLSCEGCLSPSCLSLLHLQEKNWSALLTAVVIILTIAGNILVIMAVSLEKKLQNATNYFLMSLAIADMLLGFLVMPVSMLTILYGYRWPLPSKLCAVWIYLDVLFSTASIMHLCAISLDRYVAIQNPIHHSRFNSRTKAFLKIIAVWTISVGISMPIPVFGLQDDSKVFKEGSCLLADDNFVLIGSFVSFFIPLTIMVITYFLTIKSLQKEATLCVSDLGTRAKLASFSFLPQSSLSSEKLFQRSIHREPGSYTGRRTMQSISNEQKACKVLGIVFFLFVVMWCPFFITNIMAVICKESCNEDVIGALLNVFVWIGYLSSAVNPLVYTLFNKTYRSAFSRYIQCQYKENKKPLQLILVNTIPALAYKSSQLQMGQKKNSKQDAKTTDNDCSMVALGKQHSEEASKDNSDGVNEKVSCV
Procedure for 5-HT2A: as §1
Procedure for ICR mice: Male ICR mice (23±3 g) were purchased from BioLASCO (Taipei, Taiwan) at 4-5 weeks of age and allowed 5-7 days to acclimate to the animal research facility at Pharmacology Discovery Services (Taipei, Taiwan). Mice were housed in groups of 10 in a large cage (47×25×15 cm) on a 12-hour light cycle (lights on: 0700) and provided ad libitum food and water except during acute restraint stress and tail-suspension testing. Temperature was maintained at 20-24° C., and all rooms (colony and testing rooms) had similar lighting intensity. […] All experiments were conducted between 0900 to 1700 local time, during the light phase. […]
Tail Suspension Test (TST) Procedure: Mice were individually suspended on the edge of a shelf, 58 cm above a tabletop, using adhesive tape placed approximately 1 cm from the tip of the tail, for a total duration of 7 minutes. Using a stopwatch, the experimenters blinded to treatment groups recorded the duration of immobility (defined as hanging passively and motionless) during the 5 minutes spanning from 2-7 minutes. The data from 0-2 minutes was not recorded. […]

As a reminder, the Emax is the size of the effect at its maximum, as opposed to the concentration needed. As for `CCCN(CCC)CCc1n[nH]c2cccc(O)c12` [Example P-45, 3-(2-(dipropylamino)ethyl)-1H-indazol-4-ol], the results for the Emax on 5-HT2A, on 5-HT2B [1] and at 5-HT2C were 100%, 8.93% and 40.2%, respectively.

For the compound `COc1ccc2[nH]nc(CCN(C)C)c2c1` [Example P-8, 2-(5-methoxy-1H-indazol-3-yl)-N,N-dimethylethan-1-amine], the Emax at 5-HT2A was 70%; at 5-HT2B [1], 17.9%; at 5-HT2C it was 72.4%. Besides, the “immobility time in tail suspension test” value in the assay on ICR mice is “decrease the immobility time”.

Regarding `CN(C)CCc1n[nH]c2ccccc12` [Example P-7], the Emax at 5-HT2A was -0.3%; on 5-HT2B [1] it was 0.17%; at 5-HT2C, 40.2%.

With `CCN(C)CCc1n[nH]c2ccc(OC)cc12` [Example P-51, N-ethyl-2-(5-methoxy-1H-indazol-3-yl)-N-methylethan-1-amine], the figures for the Emax on 5-HT2A, on 5-HT2B [1] and at 5-HT2C were 79.1%, 30.9% and 24.6%, respectively.

With `CCN(CC)CCc1n[nH]c2cccc(OC)c12` [Example P-42, 2-(4-methoxy-1H-indazol-3-yl)-N,N-diethylethan-1-amine], the values for the Emax at 5-HT2A, at 5-HT2B [1] and at 5-HT2C were 68.8%, 0.24% and 70.5%, respectively.

Turning to `COc1ccc2[nH]nc(CCN(C)C(C)C)c2c1` [Example P-52, N-(2-(5-methoxy-1H-indazol-3-yl)ethyl)-N-methylpropan-2-amine], the values for the Emax at 5-HT2A, on 5-HT2B [1] and on 5-HT2C were 77.3%, 0.22% and 0.09%, respectively.

As usually defined, the pEC50 is −log10 of the EC50, conventionally taken in molar units. Low readings indicate a large EC50, high ones a small EC50. Turning to `COc1cc2c(CCN(C)C)n[nH]c2cc1F` [Example A5, 2-(6-fluoro-5-methoxy-1H-indazol-3-yl)-N,N-dimethylethan-1-amine], the Emax on 5-HT2A is 87%; on 5-HT2C it was 105%. Moreover, the negative logarithm of the EC50 (pEC50) on 5-HT2A was 7.36; at 5-HT2C (agonist activity) it was 6.55. For the same compound, the “5-HT2B % Activation @ 10 µM” value at 5-HT2B [2] came out at 44%. The “immobility time in tail suspension test” value with ICR mice is “decrease the immobility time”.

As for `CN(C)CCc1n[nH]c2cccc(O)c12` [Example P-6], at 5-HT2A, the Emax worked out at 66.4% and the negative logarithm of the EC50 (pEC50) is 7.37. At 5-HT2B [1] (agonist activity), the “5-HT2B Emax” value stood at 0.34%. In addition, the “5-HT2C Emax” value at 5-HT2C (agonist activity) was −0.79%.

As to `COc1ccc2[nH]nc(CCN(C)C(C)C)c2c1F` [Example A11, N-(2-(4-fluoro-5-methoxy-1H-indazol-3-yl)ethyl)-N-methylpropan-2-amine], the values for the Emax at 5-HT2A and on 5-HT2C were 64% and 22%, respectively. Further, the negative-log EC50 (pEC50) was 5.86 on 5-HT2A and < 5.00 on 5-HT2C (agonist activity). Also, the “5-HT2B % Activation @ 10 µM” value on 5-HT2B [2] is on record as 0%.

Regarding `COc1c(F)ccc2[nH]nc(CCN(C)C3CC3)c12` [Example A4, N-(2-(5-fluoro-4-methoxy-1H-indazol-3-yl)ethyl)-N-methylcyclopropanamine], the Emax on 5-HT2A amounted to 67%; at 5-HT2C it was 91%. Also, the pEC50 on 5-HT2A was 7.20; at 5-HT2C (agonist activity), 7.77. For the same compound, the “5-HT2B % Activation @ 10 µM” value at 5-HT2B [2] worked out at 2%.

With `CCCN(CCC)CCc1n[nH]c2cccc(OC)c12` [Example P-44, 2-(4-methoxy-1H-indazol-3-yl)-N,N-dipropylethan-1-amine], the Emax at 5-HT2A was found to be 97.6%; at 5-HT2B [1], 39.4%; on 5-HT2C, 77.2%.

For `CN(C)CCc1n[nH]c2c(F)cccc12` [Example A67, 2-(7-fluoro-1H-indazol-3-yl)-N,N-dimethylethan-1-amine], the Emax stood at 63% on 5-HT2A and 37% on 5-HT2C. The pEC50 was 6.37 on 5-HT2A and 5.78 at 5-HT2C (agonist activity). At 5-HT2B [2], the “5-HT2B % Activation @ 10 µM” value amounted to 0%.

As to `COc1cc2c(CCN3CCC3C)n[nH]c2cc1F` (centres unmarked) [Example A58, 6-fluoro-5-methoxy-3-(2-(2-methylazetidin-1-yl)ethyl)-1H-indazole], the Emax at 5-HT2A stood at 57%; at 5-HT2C, 19%. In addition, the figures for the pEC50 at 5-HT2A and on 5-HT2C (agonist activity) were 5.95 and < 5.00, respectively. Also, the “5-HT2B % Activation @ 10 µM” value at 5-HT2B [2] is recorded as 0%.

In the case of `CCN(C)CCc1n[nH]c2ccc(OC)c(F)c12` [Example A10, N-ethyl-2-(4-fluoro-5-methoxy-1H-indazol-3-yl)-N-methylethan-1-amine], the values for the Emax on 5-HT2A and at 5-HT2C were 69% and 68%, respectively. Moreover, the pEC50 was 6.08 on 5-HT2A and 5.54 at 5-HT2C (agonist activity). Further, the “5-HT2B % Activation @ 10 µM” value on 5-HT2B [2] was found to be 1%.

As for `CC(C)N(C)CCc1n[nH]c2ccc(F)cc12` [Example A19, N-(2-(5-fluoro-1H-indazol-3-yl)ethyl)-N-methylpropan-2-amine], the figures for the Emax at 5-HT2A and at 5-HT2C were 25% and 69%, respectively. Further, the pEC50 at 5-HT2A was < 5.00; on 5-HT2C (agonist activity), 5.82. The “5-HT2B % Activation @ 10 µM” value at 5-HT2B [2] was found to be 1%.

In the case of `CCN(C)CCc1n[nH]c2cc(F)cc(OC)c12` [Example A39, N-ethyl-2-(6-fluoro-4-methoxy-1H-indazol-3-yl)-N-methylethan-1-amine], the Emax at 5-HT2A is 75%; at 5-HT2C, 78%. Besides, the pEC50 is 6.94 at 5-HT2A and 6.43 at 5-HT2C (agonist activity). For the same compound, the “5-HT2B % Activation @ 10 µM” value at 5-HT2B [2] stood at 0%.

Consider `COc1ccc2[nH]nc(CCNCc3ccccc3OC)c2c1` [Example A63, 2-(5-methoxy-1H-indazol-3-yl)-N-(2-methoxybenzyl)ethan-1-amine], for which the Emax on 5-HT2A is 92%; on 5-HT2C it was 88%. Besides, the pEC50 at 5-HT2A is 8.65; at 5-HT2C (agonist activity), 7.49. Moreover, the “5-HT2B % Activation @ 10 µM” value at 5-HT2B [2] is 11%.

With `COc1ccc2[nH]nc(CCNCc3ccccc3F)c2c1` [Example A64, N-(2-fluorobenzyl)-2-(5-methoxy-1H-indazol-3-yl)ethan-1-amine], the Emax was 79% on 5-HT2A and 82% at 5-HT2C. The pEC50 on 5-HT2A was 7.16; at 5-HT2C (agonist activity), 6.22. On 5-HT2B [2], the “5-HT2B % Activation @ 10 µM” value came out at 0%.

As to `CCN(CC)CCc1n[nH]c2ccc(OC)cc12` [Example P-48, N,N-diethyl-2-(5-methoxy-1H-indazol-3-yl)ethan-1-amine], the values for the Emax at 5-HT2A, at 5-HT2B [1] and at 5-HT2C were 58.6%, 16.1% and 4.22%, respectively.

For the compound `CCN(CC)CCc1n[nH]c2cccc(O)c12` [Example P-43, 3-(2-(diethylamino)ethyl)-1H-indazol-4-ol], the Emax on 5-HT2A is 38.9%; at 5-HT2B [1], 8.01%; on 5-HT2C, 28.8%.

Take `CN(C)CCc1n[nH]c2ccc(F)c(F)c12` [Example A69, 2-(4,5-difluoro-1H-indazol-3-yl)-N,N-dimethylethan-1-amine]: the Emax at 5-HT2A stood at 79%; at 5-HT2C, 62%. Also, the negative logarithm of the EC50 (pEC50) at 5-HT2A is 6.56; on 5-HT2C (agonist activity), 6.88. The “5-HT2B % Activation @ 10 µM” value on 5-HT2B [2] was 5%.

In the case of `COc1cccc2[nH]nc(CCN(C)C)c12` [Example P-55, 2-(4-methoxy-1H-indazol-3-yl)-N,N-dimethylethan-1-amine], the Emax on 5-HT2A was 58.7%; at 5-HT2B [1] it was 1.35%; at 5-HT2C, 83.6%.

Regarding `CCCN(CCC)CCc1n[nH]c2ccc(OC)cc12` [Example P-49, N,N-dipropyl-2-(5-methoxy-1H-indazol-3-yl)ethan-1-amine], the Emax was 67.6% on 5-HT2A, 30.7% at 5-HT2B [1] and -0.46% at 5-HT2C.

As for `COc1cc(F)cc2[nH]nc(CCN(C)C(C)C)c12` [Example A40, N-(2-(6-fluoro-4-methoxy-1H-indazol-3-yl)ethyl)-N-methylpropan-2-amine], the Emax on 5-HT2A came out at 72%; on 5-HT2C it was 68%. Moreover, the pEC50 at 5-HT2A was 6.49; on 5-HT2C (agonist activity), < 5.00. Further, on 5-HT2B [2], the “5-HT2B % Activation @ 10 µM” value stood at 0%.

As for `CN(C)CCc1n[nH]c2c(F)cc(F)cc12` [Example A35, 2-(5,7-difluoro-1H-indazol-3-yl)-N,N-dimethylethan-1-amine], the figures for the Emax on 5-HT2A and at 5-HT2C were 72% and 54%, respectively. Moreover, the pEC50 is 6.67 on 5-HT2A and 6.31 at 5-HT2C (agonist activity). Further, the “5-HT2B % Activation @ 10 µM” value on 5-HT2B [2] is given as 1%.
